# “And” between values parts separate entries of the source, which are not always exact repeats. Equal entries are not always repeated. Where two headings read alike, the source gives them in different places.
# Legend:
# DBTRG-05MG cells = assay: s.c. xenograft human GBM tumors in nude mice, BP; assay type: in vivo, Foxn1 nude mice
# Experimental: The RG2 cells (rat GBM) and DBTRG-05MG cells (human GBM) were used in animal experiments to monitor the anti-tumor activities of AS-C and BP. Male F344 rat (230-260 g) and male Foxn1 nu/nu mice (10-12 weeks) were obtained from National Laboratory Animal Center (Taipei, Taiwan). All procedures were performed in compliance with the Standard Operation Procedures of the Laboratory Animal Center of Tzu Chi University (Hualien, Taiwan). Animals were kept under pathogen-free conditions and fed a standard laboratory diet. The DBTRG-05MG cells (human GBM) and RG2 cells (rat GBM) were prepared for nude mice xenografts and rat allogenics, respectively.
# Animals (Foxn1 nude mice) in six groups (6/group) were implanted subcutaneously (s.c.) with 1×10^6 DBTRG-05MG cells, and randomly treated with BP s.c. (70, 150, 300, 500, 800 mg/kg/day) or vehicle s.c. at a site remote (>2 cm) from the incubated tumor after tumor cell implantation, at day 4, 5, 6, 7 and 8 for all five dosages. Tumor size was measured every 2 days and tumor volume was calculated. Animals were sacrificed when tumor exceeded 1000 mm^3. Tumor growth was monitored for 3 months for those not sacrificed. Survival rate was followed for up to 200 days.
# [1] = Cytotoxicity (IC50) on Balb/3T3; assay type: cell-based; conditions: mouse, Balb/3T3 cells
# Experimental: (§1) Human tumor cell lines (MCF-7, CL1-5, HT-29, Caco-2), human umbilical vascular endothelial cells (HUVEC), and human dermal fibroblasts (HDF) were tested for sensitivity on Angelicae sinensis extracts, ligustilide, n-butylidenephthalide and its derivatives in vitro. The DBTRG-05MG, BCM, HL-60 and J5 cells were grown in RPMI-1640 medium containing 10% fetal calf serum and 100 ng/ml penicillin and […] streptomycin at 37° C. in a humidified atmosphere with 5% CO2. The G5T/VGH, RG2, Ni 8, SVEC and Balb/3T3 cells were cultured in DMEM with 10% fetal calf serum and 100 ng/ml penicillin and […] streptomycin at 37° C. in 5% CO2. Mycoplasma infection of the culture cells was excluded by PCR screening methods before each experiment.
# (§2) The effects on cell viability after the treatments with different concentrations of the Angelicae sinensis extracts or the active components purified therefrom were evaluated by modified MTT assay in triplicate. Briefly, the cells (5×10^3) were incubated into 96-well plates containing 100 μl of a growth medium. The cells were permitted to adhere for 24 hours, then treated with 100 μl of the herbal extracts or the active components dissolved in the medium. The control contained DMSO of <0.02% (v/v). […] Absorbance at 550 nm of the solutions was measured with MRX Microtiter Plate Luminometer (DYNEX, USA). The absorbance of untreated cells was considered as 100%. […]
# MCF-7 = assay: Cytotoxicity (IC50) on MCF-7; assay type: cell-based; conditions: Homo sapiens, MCF7
# Experimental: as §1, §2
# ETS-1 = assay: RT-PCR of ETS-1 in HUVEC; assay type: cell-based, human
# HT-29 = assay: Cytotoxicity (IC50) on HT-29; assay type: cell-based; conditions: Homo sapiens
# Description: Human umbilical vascular endothelial cells (HUVECs) were purchased from Cascade Biologics, Inc. (USA). HUVECs were maintained in Medium 200 (Cascade Biologics, Inc. USA) supplemented with 10% fetal bovine serum (FBS; Gibco BRL) and low serum growth supplement (LSGS; Cascade Biologics, Inc. USA). Human dermal fibroblasts (HDFs) were purchased from Cascade Biologics, Inc. (USA). HDFs were maintained in Medium 106 (Cascade Biologics, Inc. USA) supplemented with 10% FBS and low serum growth supplement (LSGS; Cascade Biologics, Inc. USA). The human colon adenocarcinoma cell lines HT-29 were purchased from the ATCC (Manassas, Va. USA). HT-29 were maintained in Dubecco's Modified Eagle Medium (DMEM; Gibco) supplemented with 10% FBS and 100 ng/ml penicillin and […] streptomycin (Life Technologies, Inc., Grand Island, N.Y., USA). […] The absorbance was measured at 450 nm, using a microplate reader with a reference wavelength at 600 nm or over. […]
# The effects on cell viability after the treatments with different concentrations of the Angelicae sinensis extracts or the active components purified therefrom were evaluated by modified MTT assay in triplicate. […] Absorbance at 550 nm of the solutions was measured with MRX Microtiter Plate Luminometer (DYNEX, USA). The absorbance of untreated cells was considered as 100%. […]
# AT12 = assay: Cytotoxicity (IC50) on AT12; assay type: cell-based; conditions: Homo sapiens, read-out: Cytotoxicity (IC50) AT12
# Experimental: (§3) The effects on cell viability after the treatments with different concentrations of the Angelicae sinensis extracts or the active components purified therefrom were evaluated by modified MTT assay in triplicate. Briefly, the cells (5×10^3) were incubated into 96-well plates containing 100 μl of a growth medium. The cells were permitted to adhere for 24 hours, then treated with 100 μl of the herbal extracts or the active components dissolved in the medium. The control contained DMSO of <0.02% (v/v). After 24, 48 and 72 h incubation, the drug-containing medium was replaced by 50 μl of fresh medium, and cells in each well were incubated in 50 μl of 400 μg/ml MTT for 6-8 h. The medium and MTT were removed later and 100 μl of DMSO was added to each well and to the control, to dissolve the soluble components. Absorbance at 550 nm of the solutions was measured with MRX Microtiter Plate Luminometer (DYNEX, USA). The absorbance of untreated cells was considered as 100%. To evaluate the effects of the extracts or the active components on cell growth rate of GBM cells, 5×10^3 exponentially growing cells were treated with different concentrations for 24, 48, or 72 h. The cytotoxicity of each test substance was determined as an IC50 value, which represents the drug concentration required to cause 50% inhibition. All experiments in this study were performed in triplicate.
# A549 = assay: Cytotoxicity (IC50) on A549; assay type: cell-based; conditions: Homo sapiens
# Experimental: as §3
# RG2 = assay: Cytotoxicity (IC50) on RG2; assay type: cell-based, rat; conditions: Rattus norvegicus, RG2
# Experimental: as §1, §3
smiles,measurement,setting,value
"CCCC=C1OC(=O)c2ccccc21 [BP, n-Butylidenephthalide]",tumor growth compared with untreated group,"DBTRG-05MG cells; BP s.c. 70-800 mg/kg/day day 4-8, dose dependent, p<0.005 for 300 mg/kg",significant suppressions of tumor growth
same,survival period of nude mice,"DBTRG-05MG cells; BP s.c. 70-800 mg/kg/day, followed for up to 200 days",up to 200 days
same,IC50,[1]; Table 2,> 300 µg/mL
same,IC50,"[1]; Table 2, value in parentheses",> 1600 µM
same,IC50,"MCF-7; Table 1, value in parentheses",> 106 µM
same,IC50,"MCF-7; cancer cells, Table 1",> 20 µg/mL
same,Inhibition RT-PCR ETS-1,ETS-1,53.13 µg/mL
same,Inhibition RT-PCR ETS-1,ETS-1; value in parentheses,(282.6 μM)
same,IC50,HT-29; Table 2,15 to 97 µg/mL
same,IC50,"HT-29; Table 2, value in parentheses",79.8 to 516 µM
same,IC50,AT12,10 µg/mL to 15 µg/mL and 53.2 µM to 79.8 µM
same,IC50,A549; Table 2,8 to 12 µg/mL
same,IC50,"A549; Table 2, value in parentheses",42.6 to 63.8 µM
same,IC50,"RG2; Table 1, value in parentheses",7.45 µM
same,IC50,RG2; Table 2,1.4 µg/mL
same,IC50,"RG2; Table 2, value in parentheses",7.45 µM
same,IC50,"RG2; cancer cells, Table 1",1.4 µg/mL

# Source: patent US7455861B2, “Angelicae sinensis extracts useful for treatment of cancers” (priority 2004, dated 2008)
